Columns and labels:
[1] = tested on: Mycobacterium tuberculosis CDC1551 (intracellular, in murine BMDM); assay: area under intracellular growth-inhibition dose-response curve (AUC (% inhibition x dose, relative)); higher = more potent; conditions: duration: 6 days; dose range: 0.13-80 uM, 8 points
Summary of the method: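 Primary murine bone marrow-derived macrophages in 384-well opaque plates were infected 24 h after seeding with luciferase-expressing M. tuberculosis CDC1551 at multiplicity of infection 1 for 1 h. They were then treated with an 8-dose, 2.5-fold series (final 80–0.13 μM) for 6 days. Growth was read by Bright-Glo luciferin assay and normalised to a reference drug control and the lowest-concentration wells. The value is the area under the growth-inhibition dose–response curve, calculated in GraphPad Prism.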

[2] = tested on: murine bone marrow-derived macrophages; assay: area under cytotoxicity dose-response curve (AUC (% cytotoxicity x dose, relative)); higher = more cytotoxic; conditions: duration: 6 days; dose range: 0.13-80 uM, 8 points
Summary of the method: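 Using opaque 384-well plates, primary murine bone marrow-derived macrophages were treated for 6 days at 37 °C in 5% CO2 with an 8-point, 2.5-fold dilution series spanning final concentrations of 80–0.13 μM. After CellTiter-Glo (Promega) luminescence readout of viability, percent cytotoxicity was normalised to vehicle and positive control wells. The reported value is the area under the dose–response curve for cytotoxicity, derived in GraphPad Prism version 10.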

SMILES | area under intracellular growth-inhibition dose-response curve [1] | area under cytotoxicity dose-response curve [2]
O=C(NNC(=O)c1cc2ccccc2o1)c1ccncc1 | 135 | 11.1
Cc1ccc2nc(C)c3c(c2c1)SCC3 | 79.5 | 24.5
CCCCCC(=O)NC(=S)Nc1ccc(NC(=O)c2ccco2)cc1 | 274 | 0.441
CCOC(=O)c1cc(-c2ccc(N3CCOCC3)cc2)nn1-c1ccc(F)cc1F | 15.8 | 22.7
CCn1c(-c2cccs2)nc2ccccc21 | 194 | 69.6
O=C(NCCc1ccc(Cl)cc1)c1ccc(CNc2c(N3CCOCC3)c(=O)c2=O)cc1 | 162 | < 0
C/C=C/C=N\NC(=O)c1ccncc1 | 259 | 9.36
CCn1c(SCc2ccc(C(=O)OC)o2)nnc1-c1c[nH]c2ccccc12 | 117 | 20.1
C/C(Cn1cnc([N+](=O)[O-])n1)=N\NC(=O)c1ccncc1 | 249 | 39.4
Cc1cccc(NC(=O)NC2CCCCCCC2)c1 | 123 | 95.3
Cc1ccccc1OCCC(=O)NNC(=O)c1ccccc1F | 106 | 17.3
CC(=O)c1c(C)[n+]([O-])c2cc(F)c(F)cc2[n+]1[O-] | 45.9 | 13.7
CCOc1ccc(-n2cc(-c3ccc(OC)c(OC)c3)nc2S)cc1 | 210 | 81.6
O=C(NC1CCCC1)c1cc2ccccc2o1 | 225 | 56.4
O=C(O)/C=C\C(=O)O.OC(CCCN1CCCCC1)(c1ccccc1)c1ccc(C(F)(F)F)cc1 (centres undefined) | 214 | 32.3
CO[C@@H]1[C@@H](OC(N)=O)[C@@H](O)C(Oc2ccc3c(O)c(NC(=O)c4ccc([O-])c(CC=C(C)C)c4)c(=O)oc3c2C)OC1(C)C.[Na+] (some centres undefined) | 24.9 | 80.2
C/C(=N\NC(=O)c1ccncc1)c1ccc(N2CCOCC2)cc1 | 255 | 16.1
CCOc1ncccc1C(=O)Nc1cc2c(cc1Br)OCCO2 | 132 | 24.1
O=C(NC1CCCCC1)c1ccc2c(c1)OCO2 | 125 | 88.5
S=C(Nc1ccccc1)Nc1ccc(OCc2ccccc2)cc1 | 272 | < 0
CC1CCC(C(C)C)C(OC(=O)Cn2c(-c3ccccc3)[n+](C)c3ccccc32)C1.[Cl-] (centres undefined) | 124 | 12.5

SMILES | area under intracellular growth-inhibition dose-response curve [1] | area under cytotoxicity dose-response curve [2]
Brc1ccc(-[n+]2c(-c3ccccc3)cc(-c3ccccc3)cc2-c2ccccc2)cc1.[O-][Cl+3]([O-])([O-])[O-] | 70.1 | 14.7
C/C(CC(C)(C)C1CCCCC1)=N\NC(N)=S | 238 | 119
Cc1c(C)c2cccnc2c2ncccc12 | 162 | 36.7
Cc1ccc(C)c(N2CCN(CCCNC(=O)Cn3cccc3C(=O)c3ccccc3C)CC2)c1 | 84.4 | 3.91
COc1ccc(-c2c(C)cc3oc(=O)cc(-c4ccccc4)c3c2C)cc1 | 154 | 33.9
CC[N+](C)(CC)CCCCOc1ccc2c(c1)C(=O)c1cc(OCCCC[N+](C)(CC)CC)ccc1-2.[I-] | 175 | 51.3
C=CCOc1ccc(/C=N\NC(N)=S)cc1 | 276 | 10.8
Cc1ccc(S(=O)(=O)N2CCN(C(=O)c3cc(S(=O)(=O)N4CCOCC4)c(Cl)cc3Cl)CC2)cc1 | 75.1 | 21.2
COC(=O)c1sccc1NC(=O)c1c(F)c(F)c(F)c(F)c1F | 158 | 12.8
NS(=O)(=O)c1cccc(NC(=O)COC(=O)c2ccc(S(=O)(=O)N3CCOCC3)cc2)c1 | 112 | 10
CC[C@@H](C)[C@H](CNC)NC[C@@H](Cc1cccc2ccccc12)NCCc1cccc(C(F)(F)F)c1 | 144 | 117
CCc1cccc2sc(N3CCN(C(=O)c4ccc([N+](=O)[O-])o4)CC3)nc12 | 71.9 | 85.8
COc1ccc(OC)c(/C=N/NC(=O)c2ccncc2)c1 | 254 | 66.9
CC(C)(C)c1nnc(NC(=S)Nc2ccccc2)s1 | 258 | < 0
CCCCCOc1ccc(C(=O)CCC(=O)NNC(=O)c2ccncc2)cc1 | 224 | 75.4
CS(=O)(=O)Nc1ccccc1C(=O)OCC(=O)N1CCC(c2ccccc2)=N1 | 115 | < 0
On1c(-c2ccccc2)nc2ccccc21 | 28.6 | < 0
CC(=O)Nc1sc(N/N=C/c2ccc(N(C)C)cc2)nc1-c1ccc(C)cc1 | 263 | 6.8
CCOC(=O)/C=C/C(=O)NNC(=O)c1ccccc1Cl | 49.3 | 186
c1ccc(Cc2nnc(-c3ccccc3)o2)cc1 | 264 | 39.3
CC(=O)c1cc(NC(=O)c2cccc(C(F)(F)F)c2)c(=O)oc1/C=C/N(C)C | 194 | 64.4

SMILES | area under intracellular growth-inhibition dose-response curve [1] | area under cytotoxicity dose-response curve [2]
CCCN1CNC(=S)N(c2ccc(C(=O)OCC)cc2)C1 | 83.8 | 9
Cc1oc(-c2cccs2)nc1CSCC(=O)N1CCC2(CC1)OCCO2 | 48.9 | 37.4
O=C(NCCC1CCCC1)c1cccs1 | 200 | 13.7
O=C(COC(=O)c1ccccc1O)NC1CCCc2ccccc21 (centres undefined) | 126 | < 0
O=[N+]([O-])c1ccc(/C=N/Nc2nc(N3CCCCC3)nc(N3CCCCC3)n2)o1 | 226 | < 0
N#CCCn1cc(/C=N/NC(=O)c2ccncc2)c(-c2ccccc2)n1 | 247 | < 0
N=c1c2c(-c3ccccc3)c(-c3ccccc3)n(Cc3ccccc3)c2ncn1CCCn1ccnc1 | 48.2 | 49.3
CNc1ncnc2c1ncn2[C@@H]1O[C@H](CO)[C@@H](O)[C@H]1O | 39.4 | 32.7
CCOc1ccc(C(=O)CCC(=O)NNC(=O)c2ccncc2)cc1 | 119 | 49
O=C(CCC1CCCC1)NCc1cccs1 | 198 | 42.7
Cc1ccc(C2=NN(C(=O)CCl)C(c3cccs3)C2)o1 (centres undefined) | 105 | 25.9
CNc1nc(N2CCc3ccccc32)ncc1F | 140 | < 0
CCN1/C(=C/C(C)=C/c2sc3ccccc3[n+]2CC)Sc2ccccc21.[I-] | 138 | 94.9
CCOc1ccc2oc(C(=O)OCC(=O)NCc3ccc(OC)cc3)c(C)c2c1 | 58.1 | < 0
O=C(NCc1ccc(F)cc1)c1cc2ccccc2o1 | 254 | 48.5
CCC(C)c1ccc(NC(=S)Nc2ccc(OC)cc2)cc1 (centres undefined) | 201 | 46.7
CCOC(=O)c1c(-c2ccccc2)oc2ccc(O)c(CN3CCCC3)c12 | 278 | < 0
CC(=NNC(=O)c1ccncc1)c1cccc(Cl)c1 | 258 | < 0
Fc1ccc(C2=CC(c3cccs3)n3nnnc3N2)cc1 (centres undefined) | 216 | < 0
O=C(CCC1CCCC1)NCc1ccccn1 | 240 | < 0
